We go through one molecule from paper PMC9394284, “Discovery of Novel Dual Adenosine A2A and A1 Receptor Antagonists with 1H-Pyrazolo[3,4-d]pyrimidin-6-amine Core Scaffold as Anti-Parkinson’s Disease Agents” (Pharmaceuticals, 2022).

Series [1] is described as follows: metabolic stability in cryopreserved rat hepatocytes. The method, then:
Metabolic stability of 11o was determined in cryopreserved hepatocytes from mice, rats, dogs, monkeys and human according to the SOPs of Frontage Laboratories Inc. Briefly, cryopreserved hepatocytes for pre-clinical animals and for human (BioIVT, Westbury, NY, USA) were thawed in a 37 °C water bath with gentle shaking until ice had almost melted. The suspensions were immediately transferred to a centrifuge tube (50 mL) containing pre-warmed thawing media at 37 °C with gentle handshaking to prevent the cells from settling. Cell suspensions were centrifuged at 50× g and 4 °C for 5 min. The supernatant was discarded and the pellets were resuspended in prewarmed incubation media (5 mL) at 37 °C. The percentage of viable cells in the suspension was determined by Trypan blue staining method to ensure viability of ≥70 %. […] The samples were centrifuged and aliquots of the supernatant were analyzed for parent compounds by LC/MS/MS using suitable multiple reaction monitoring (MRM) transitions. […] The disappearance of 11o and midazolam was monitored by LC/MS/MS (MRM) analysis of the hepatocyte extracts at each time point. The peak area ratio of the analyte to internal standard was obtained for each sample and the rate of disappearance of 11o was assessed by comparing the peak area ratios at various time points to the peak area ratio obtained at t = 0. The t1/2 is obtained (using the linear portion of semi-log plot of the area ratio vs. time) and the CLint values determined using well-stirred model.

The next series has as its target T1, hERG (Homo sapiens, UniProt Q12809).
T1 construct: host or cells: HEK cells stably expressing hERG
Put plainly: hERG manual patch clamp in hERG-expressing HEK cells. It counts as cell-based. The note with it: read-out: hERG inhibition IC50. On the procedure:
hERG (human-ether-a-go-go) liability was investigated in an hERG-expressing HEK cell line using the manual patch clamp method to assess the potential cardiotoxicity of 11o.
hERG ion channel-blocking profile of acute exposure to 11o was performed in stably expressing HEK cells at Nova Research Laboratories (New Orleans, LA, USA). Briefly, cloned equivalent of the human IKr, hERG, was used. Cells were obtained from Cytogentrics Bioscience GmbH (Jachim-Jungius-Strafe 9, 18,059 Rostock, Germany). Internal and external recording solutions as well as data acquisition and analysis were as previously described.
(In general: Block of hERG is tested as a sign of cardiac risk.)

Where [2] appears, read: Sprague Dawley, rat, cryopreserved hepatocytes in suspension.

T1 sequence (Q12809 whole entry): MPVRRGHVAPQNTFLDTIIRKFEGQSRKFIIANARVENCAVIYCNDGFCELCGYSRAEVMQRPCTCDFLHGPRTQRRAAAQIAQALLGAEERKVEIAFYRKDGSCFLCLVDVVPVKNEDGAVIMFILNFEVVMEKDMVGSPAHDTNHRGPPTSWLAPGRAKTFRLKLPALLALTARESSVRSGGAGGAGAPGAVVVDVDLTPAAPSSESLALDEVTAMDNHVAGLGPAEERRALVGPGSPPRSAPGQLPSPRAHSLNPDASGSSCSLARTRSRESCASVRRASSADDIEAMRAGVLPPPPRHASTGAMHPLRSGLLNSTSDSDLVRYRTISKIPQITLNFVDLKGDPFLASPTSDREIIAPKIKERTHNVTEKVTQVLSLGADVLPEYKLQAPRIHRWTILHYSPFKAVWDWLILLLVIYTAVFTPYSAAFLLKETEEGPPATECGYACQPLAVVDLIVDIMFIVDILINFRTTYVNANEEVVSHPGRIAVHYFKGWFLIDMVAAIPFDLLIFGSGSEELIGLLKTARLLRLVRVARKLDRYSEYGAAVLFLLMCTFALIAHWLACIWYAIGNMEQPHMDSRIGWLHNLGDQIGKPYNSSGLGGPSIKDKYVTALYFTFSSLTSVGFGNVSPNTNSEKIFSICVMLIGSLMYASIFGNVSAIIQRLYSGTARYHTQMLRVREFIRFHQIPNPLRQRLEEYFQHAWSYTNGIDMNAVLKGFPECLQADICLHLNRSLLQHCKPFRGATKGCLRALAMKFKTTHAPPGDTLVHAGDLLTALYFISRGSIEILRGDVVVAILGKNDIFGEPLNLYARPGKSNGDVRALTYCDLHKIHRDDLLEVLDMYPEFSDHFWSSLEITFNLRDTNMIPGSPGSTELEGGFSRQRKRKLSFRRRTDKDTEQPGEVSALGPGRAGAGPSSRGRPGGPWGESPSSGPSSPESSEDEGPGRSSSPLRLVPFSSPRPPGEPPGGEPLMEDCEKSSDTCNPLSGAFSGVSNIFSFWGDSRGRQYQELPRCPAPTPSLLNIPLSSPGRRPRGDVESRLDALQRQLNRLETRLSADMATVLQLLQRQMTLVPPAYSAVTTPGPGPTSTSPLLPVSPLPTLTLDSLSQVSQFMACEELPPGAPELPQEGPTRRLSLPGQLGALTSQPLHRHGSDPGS

Turning to `Cc1cc(Cn2ncc3c(-c4cccc(C#N)c4F)nc(N)nc32)ccc1N` [11o, 3-(6-Amino-1-(4-amino-3-methylbenzyl)-1H-pyrazolo[3,4-d]pyrimidin-4-yl)-2-fluorobenzonitrile], in series [1] (setting [2]), the CLint scaled at 1 μM was found to be 69.2 mL/min/kg, the half-life at 1 μM was determined as 46.9 min and the hepatocyte CLint at 1 μM turned out to be 14.8 µL/min/1e6 cells. For the same molecule, in series [1] (rat hepatocytes, 1 μM 11o), the “Intrinsic Clearance” value came to 0.0148 mL/min/10^6 Cells. For the same molecule, the IC50 on hERG turned out to be 116 µM.

The CLint scaled is the rate of metabolic loss divided by the concentration. Usually half-life stands for how long it takes for the measured level to halve. Lower therefore signals rapid decline. In general, hepatocyte CLint refers to a measure of how fast metabolising enzymes remove a compound, apart from limits set by blood flow. High values mean faster metabolism, low ones greater metabolic stability. For orientation: IC50 means the point on the concentration scale where inhibition reaches its midpoint.
